Several values for one entry are separate records, joined by “and”; a condition that tells them apart may be missing. Equal values may be shown once.
Tests used:
[1] = system: Human hair follicle stem cells; assay: Human hair follicle stem cell proliferation (EdU); format: cell-based; details: 20 μM, 30 μM, 50 μM, 6 h
[2] = system: Hela cells; assay: Phagocytosis of adriamycin-loaded ferroferric oxide nanoparticles by Hela cells; format: cell-based; details: 5 nM for 1 h, then nanoparticles 4 h
Protocol: Hela cells (cell bank, Chinese Academy of Sciences) were seeded in a 6-well plate at a density of 1.0*10^5 and cultured for 24 h. The cells were treated with 5 nM Ser-EPA for 1 h and washed to remove Ser-EPA. Adriamycin-loaded ferroferric oxide nanoparticles were added followed by incubation for 4 h. Then, the cells were washed with PBS, stained with DAPI, and observed with confocal microscope.

[3] = system: TNF-α; assay: Skin photoaging (UVB) in BALB/c nude mice, serum TNF-α (Example II-54, Table II-32); format: in vivo, mouse; details: UVB-irradiated BALB/c nude mice, 40 days
[4] = system: IL-1β; assay: Skin photoaging (UVB) in BALB/c nude mice, serum IL-1β (Example II-54, Table II-33); format: in vivo, mouse; details: mouse, in vivo
[5] = system: TNF-α; assay: LPS inflammatory aging in C57BL/6 mice, serum TNF-α (Example II-55, Table II-37); format: in vivo, mouse; details: 1 mM, 200 μl/time once a day for 30 days, LPS C57BL/6 mice
[6] = system: IL-6; assay: LPS inflammatory aging in C57BL/6 mice, serum IL-6 (Example II-55, Table II-36); format: in vivo, mouse; details: mouse, in vivo
[7] = system: IL-6; assay: Skin photoaging (UVB) in BALB/c nude mice, serum IL-6 (Example II-54, Table II-34); format: in vivo, mouse; details: mouse, in vivo
[8] = system: IL-1β; assay: LPS inflammatory aging in C57BL/6 mice, serum IL-1β (Example II-55, Table II-35); format: in vivo, mouse; details: 1 mM, 200 μl/time, once a day, 30 days
[9] = system: Hela cells; assay: Cell membrane fluidity (Laurdan fluorescence recovery) in Hela cells; format: cell-based
[10] = system: Hela cells; assay: Cell migration (scratch) in Hela cells; format: cell-based; details: 24 h
Protocol: Hela cells in logarithmic growth phase (cell bank of Chinese Academy of Sciences) were trypsinized into a single cell suspension and inoculated into a 6-well culture plate. […] The next day 5 nM Thr-EPA was added by scratching with a 200-microliter gun tip against the horizontal line on the vertical back of the lid of the 6-well plate. 24 h later, samples were taken and photographed. […] Hela cells in logarithmic growth phase (cell bank of Chinese Academy of Sciences) were trypsinized into a single cell suspension and inoculated into a 6-well culture plate. […] The next day […] Thr-EPA was added by scratching with a 200-microliter gun tip against the horizontal line on the vertical back of the lid of the 6-well plate. 24 h later, samples were taken and photographed.

## CC/C=C\C/C=C\C/C=C\CCCCCCCC(=O)NCCCCC(N)C(=O)O (stereo not drawn) [Lys-ALA]
[1]
  proliferation of human hair follicle stem cells: effectively promote the proliferation

## CCC=CCC=CCC=CCC=CCC=CCCCC(=O)NC(CO)C(=O)O (stereo not drawn) [Ser-EPA, Serine-EPA]
[2]
  phagocytosis of nanoparticles by treated cells: significantly inhibited
[3]; 30 μM smeared
  TNF-α: 54 pg/mL
[3]; 50 μM smeared
  TNF-α: 49 pg/mL
[3]; 100 μM smeared
  TNF-α: 44 pg/mL
[4]
  IL-1β: 57 pg/mL and 61 pg/mL and 54 pg/mL
[5]
  TNF-α: 48 pg/mL
[6]
  IL-6: 47 pg/mL
[7]
  IL-6: 41 pg/mL and 38 pg/mL and 39 pg/mL
[8]
  IL-1β: 48 pg/mL
[9]; 2 nM, 20 s
  Fluorescence recovery rate %: 63.44%
[9]; 2 nM, 40 s
  Fluorescence recovery rate %: 65.36%
[9]; 2 nM, 60 s
  Fluorescence recovery rate %: 65.21%
[9]; 2 nM, 80 s
  Fluorescence recovery rate %: 66.35%
[9]; 5 nM, 20 s
  Fluorescence recovery rate %: 64.73%
[9]; 5 nM, 40 s
  Fluorescence recovery rate %: 64.59%
[9]; 5 nM, 60 s
  Fluorescence recovery rate %: 65.66%
[9]; 5 nM, 80 s
  Fluorescence recovery rate %: 67.97%
[9]; 10 nM, 20 s
  Fluorescence recovery rate %: 64.66%
[9]; 10 nM, 40 s
  Fluorescence recovery rate %: 65.11%
[9]; 10 nM, 60 s
  Fluorescence recovery rate %: 65.24%
[9]; 10 nM, 80 s
  Fluorescence recovery rate %: 66.83%
[9]; 50 nM, 20 s
  Fluorescence recovery rate %: 62.84%
[9]; 50 nM, 40 s
  Fluorescence recovery rate %: 62.94%
[9]; 50 nM, 60 s
  Fluorescence recovery rate %: 63.04%
[9]; 50 nM, 80 s
  Fluorescence recovery rate %: 64.54%
[9]; 50 μM, 20 s
  Fluorescence recovery rate %: 64.33%
[9]; 50 μM, 40 s
  Fluorescence recovery rate %: 72.49%
[9]; 50 μM, 60 s
  Fluorescence recovery rate %: 73.77%
[9]; 50 μM, 80 s
  Fluorescence recovery rate %: 81.40%
[9]; 100 μM, 20 s
  Fluorescence recovery rate %: 65.72%
[9]; 100 μM, 40 s
  Fluorescence recovery rate %: 72.99%
[9]; 100 μM, 60 s
  Fluorescence recovery rate %: 74.34%
[9]; 100 μM, 80 s
  Fluorescence recovery rate %: 80.39%

## CCC=CCC=CCC=CCC=CCC=CCCCC(=O)OC(C)C(N)C(=O)O (stereo not drawn) [Thr-EPA]
[10]; 5 nM
  cell migration: inhibited cell migration
[10]; 50 µM
  cell migration: promoted cell migration
